Consider 20 compounds from US8119624B2, “Fused phenyl amido heterocyclic compounds” (Pfizer Inc., priority 2006, dated 2012).

Structures are written as SMILES. Like-named read-outs stand apart in the source and are kept apart here.

For the experiment, the target named is T1, Full-length glucokinase (beta cell isoform) (Homo sapiens, UniProt P35557).
T1 construct: Full-length glucokinase (beta cell isoform) was His-tagged at N-terminus; His tag (N); made in house
T1 sequence (P35557 1-465): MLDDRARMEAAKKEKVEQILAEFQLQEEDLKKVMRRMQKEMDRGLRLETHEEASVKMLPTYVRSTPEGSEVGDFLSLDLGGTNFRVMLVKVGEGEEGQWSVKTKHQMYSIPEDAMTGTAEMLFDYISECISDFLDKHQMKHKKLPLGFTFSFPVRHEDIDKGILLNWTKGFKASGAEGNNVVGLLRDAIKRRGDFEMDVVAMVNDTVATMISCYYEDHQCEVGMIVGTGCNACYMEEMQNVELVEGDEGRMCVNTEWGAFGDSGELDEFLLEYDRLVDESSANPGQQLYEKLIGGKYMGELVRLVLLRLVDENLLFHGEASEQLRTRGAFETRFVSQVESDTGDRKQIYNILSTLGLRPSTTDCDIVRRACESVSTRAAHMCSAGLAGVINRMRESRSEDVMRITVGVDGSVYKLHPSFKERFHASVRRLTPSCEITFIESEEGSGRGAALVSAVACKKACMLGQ
As to the kind of experiment: Glucokinase biochemical assay (PK/LDH-coupled, NADH depletion at 340 nm): % activation, EC50, % max activation. The conditions noted are these: for activation at 10 µM: read-out: % Activation at 10 uM; for EC50: GK activation; for Emax: read-out: % Max Activation. The gist of the method: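 Activation expressed as (Va/Vo−1)×100, where initial rates with and without compound come from NADH depletion at 340 nm over 200–900 s. Enzyme is His-tagged human beta-cell GK, full length, run at room temperature in HEPES buffer with 1 mM ATP and 5 mM glucose. DMSO 1%.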

Where [1] appears, read: 10 uM compound, 5 mM glucose, % Activation=(Va/Vo−1)×100.
Setting [2] is: 5 mM glucose, fitted maximum activation.

In the case of `Cn1ccc(NC(=O)c2cc(Oc3ccc(S(C)(=O)=O)cc3)c3c(c2)OC(C(F)F)C3)n1` (stereo not shown) [Example 225, 2-Difluoromethyl-4-(4-methanesulfonyl-phenoxy)-2,3-dihydro-benzofuran-6-carboxylic acid (1-methyl-1H-pyrazol-3-yl)-amide], the activation at 10 µM under setting [1] stood at 103%. For the same compound, the EC50 (5 mM glucose, read-out: EC50) came to 2.93 µM. Further, the Emax under setting [2] stood at 242%.

With `Cn1ccc(NC(=O)c2cc(Oc3ccc(C(=O)N4CCC4)cc3)c3c(c2)OC(C(F)F)C3)n1` (stereo not shown) [Example 226, 4-[4-(Azetidine-1-carbonyl)-phenoxy]-2-difluoromethyl-2,3-dihydro-benzofuran-6-carboxylic acid (1-methyl-1H-pyrazol-3-yl)-amide], the activation at 10 µM under setting [1] worked out at 112%. The EC50 (5 mM glucose, read-out: EC50) was 0.64 µM. Besides, under setting [2], the Emax was 137%.

Take `Cn1ccc(NC(=O)c2cc(Oc3ccc(S(C)(=O)=O)cc3)c3c(c2)OC(C)(CO)C3)n1` (stereo not shown) [Example 227, 2-Hydroxymethyl-4-(4-methanesulfonyl-phenoxy)-2-methyl-2,3-dihydro-benzofuran-6-carboxylic acid (1-methyl-1H-pyrazol-3-yl)-amide]: the activation at 10 µM under setting [1] was 165%. For the same compound, the concentration for a half-maximal effect (EC50) (5 mM glucose, read-out: EC50) was 0.69 µM. Under setting [2], the Emax came out at 184%.

Turning to `COCC1(C)Cc2c(Oc3ccc(S(C)(=O)=O)cc3)cc(C(=O)Nc3ccn(C)n3)cc2O1` (stereo not shown) [Example 228, 4-(4-Methanesulfonyl-phenoxy)-2-methoxymethyl-2-methyl-2,3-dihydro-benzofuran-6-carboxylic acid (1-methyl-1H-pyrazol-3-yl)-amide], the activation at 10 µM under setting [1] is 151%. Moreover, the half-maximal effective concentration (EC50) (5 mM glucose, read-out: EC50) stood at 0.5 µM. Besides, the Emax under setting [2] amounted to 156%.

In the case of `CN(C)C(=O)c1ccc(Oc2cc(C(=O)Nc3ccn(C)n3)cc3c2CC(C)(CO)O3)cc1F` (stereo not shown) [Example 229, 4-(4-Dimethylcarbamoyl-3-fluoro-phenoxy)-2-hydroxymethyl-2-methyl-2,3-dihydro-benzofuran-6-carboxylic acid (1-methyl-1H-pyrazol-3-yl)-amide], under setting [1], the activation at 10 µM stood at 101%. Moreover, the half-maximal effective concentration (EC50) (5 mM glucose, read-out: EC50) worked out at 0.12 µM. The Emax under setting [2] was 97%.

Turning to `Cc1ccc(NC(=O)c2cc(Oc3ccc(S(C)(=O)=O)cc3)c3c(c2)OC(C)(CO)C3)nc1` (stereo not shown) [Example 230, 2-Hydroxymethyl-4-(4-methanesulfonyl-phenoxy)-2-methyl-2,3-dihydro-benzofuran-6-carboxylic acid (5-methyl-pyridin-2-yl)-amide], the activation at 10 µM under setting [1] was 91.8%. Also, the half-maximal effective concentration (EC50) (5 mM glucose, read-out: EC50) came to 0.33 µM. Also, the Emax under setting [2] turned out to be 95%.

Regarding `COCC1(C)Cc2c(Oc3ccc(S(C)(=O)=O)cc3)cc(C(=O)Nc3ccc(C)cn3)cc2O1` (stereo not shown) [Example 231, 4-(4-Methanesulfonyl-phenoxy)-2-methoxymethyl-2-methyl-2,3-dihydro-benzofuran-6-carboxylic acid (5-methyl-pyridin-2-yl)-amide], under setting [1], the activation at 10 µM was 118%. For the same compound, the EC50 (5 mM glucose, read-out: EC50) stood at 0.1 µM. For the same compound, the Emax under setting [2] was determined as 106%.

Take `Cn1ccc(NC(=O)c2cc(Oc3ccc(S(C)(=O)=O)c(F)c3)c3c(c2)OC(C)(CO)C3)n1` (stereo not shown) [Example 232, 4-(3-Fluoro-4-methanesulfonyl-phenoxy)-2-hydroxymethyl-2-methyl-2,3-dihydro-benzofuran-6-carboxylic acid (1-methyl-1H-pyrazol-3-yl)-amide]: under setting [1], the activation at 10 µM amounted to 188%. Besides, the concentration for a half-maximal effect (EC50) (5 mM glucose, read-out: EC50) was 0.39 µM. Further, the Emax under setting [2] worked out at 184%.

Turning to `Cc1ccc(NC(=O)c2cc(Oc3ccc(S(C)(=O)=O)c(F)c3)c3c(c2)OC(C)(CO)C3)nc1` (stereo not shown) [Example 233, 4-(3-Fluoro-4-methanesulfonyl-phenoxy)-2-hydroxymethyl-2-methyl-2,3-dihydro-benzofuran-6-carboxylic acid (5-methyl-pyridin-2-yl)-amide], the activation at 10 µM under setting [1] came to 201%. In addition, under “5 mM glucose, read-out: EC50”, the concentration giving a half-maximal response (EC50) is 0.064 µM. The Emax under setting [2] is 165%.

In the case of `COCC1(C)Cc2c(Oc3ccc(C(=O)N(C)C)c(F)c3)cc(C(=O)Nc3ccn(C)n3)cc2O1` (stereo not shown) [Example 234, 4-(4-Dimethylcarbamoyl-3-fluoro-phenoxy)-2-methoxymethyl-2-methyl-2,3-dihydro-benzofuran-6-carboxylic acid (1-methyl-1H-pyrazol-3-yl)-amide], the activation at 10 µM under setting [1] worked out at 121%. Further, the half-maximal effective concentration (EC50) (5 mM glucose, read-out: EC50) turned out to be 0.075 µM. For the same compound, the Emax under setting [2] stood at 112%.

Regarding `Cn1ccc(NC(=O)c2cc(Oc3cc(F)ccc3S(C)(=O)=O)c3c(c2)OC(C)(CO)C3)n1` (stereo not shown) [Example 235, 4-(5-Fluoro-2-methanesulfonyl-phenoxy)-2-hydroxymethyl-2-methyl-2,3-dihydro-benzofuran-6-carboxylic acid (1-methyl-1H-pyrazol-3-yl)-amide], the activation at 10 µM under setting [1] stood at 69.2%. For the same compound, the 50% effective concentration (EC50) (5 mM glucose, read-out: EC50) is greater than 10 µM.

`Cc1ccc(NC(=O)c2cc(Oc3cc(F)ccc3S(C)(=O)=O)c3c(c2)OC(C)(CO)C3)nc1` (stereo not shown) [Example 236, 4-(5-Fluoro-2-methanesulfonyl-phenoxy)-2-hydroxymethyl-2-methyl-2,3-dihydro-benzofuran-6-carboxylic acid (5-methyl-pyridin-2-yl)-amide]: under setting [1], the activation at 10 µM stood at 55.6%. The 50% effective concentration (EC50) (5 mM glucose, read-out: EC50) came to 2.7 µM. For the same compound, the Emax under setting [2] came to 66%.

For the compound `COCC1(C)Cc2c(Oc3ccc(S(C)(=O)=O)c(F)c3)cc(C(=O)Nc3ccn(C)n3)cc2O1` (stereo not shown) [Example 237, 4-(3-Fluoro-4-methanesulfonyl-phenoxy)-2-methoxymethyl-2-methyl-2,3-dihydro-benzofuran-6-carboxylic acid (1-methyl-1H-pyrazol-3-yl)-amide], the activation at 10 µM under setting [1] stood at 189%. Further, the EC50 (5 mM glucose, read-out: EC50) was 0.098 µM. Besides, under setting [2], the Emax came out at 157%.

Take `COCC1(C)Cc2c(Oc3cc(F)ccc3S(C)(=O)=O)cc(C(=O)Nc3ccn(C)n3)cc2O1` (stereo not shown) [Example 238, 4-(5-Fluoro-2-methanesulfonyl-phenoxy)-2-methoxymethyl-2-methyl-2,3-dihydro-benzofuran-6-carboxylic acid (1-methyl-1H-pyrazol-3-yl)-amide]: the activation at 10 µM under setting [1] came out at 89.8%. The 50% effective concentration (EC50) (5 mM glucose, read-out: EC50) was greater than 10 µM.

Take `Cc1ccc(NC(=O)c2cc(Oc3ccc(C(=O)N(C)C)c(F)c3)c3c(c2)OC(C)(CO)C3)nc1` (stereo not shown) [Example 239, 4-(4-Dimethylcarbamoyl-3-fluoro-phenoxy)-2-hydroxymethyl-2-methyl-2,3-dihydro-benzofuran-6-carboxylic acid (5-methyl-pyridin-2-yl)-amide]: the activation at 10 µM under setting [1] worked out at 32.1%. Also, the half-maximal effective concentration (EC50) (5 mM glucose, read-out: EC50) came to 0.02 µM. Further, the Emax under setting [2] is 42%.

For `Cc1ccc(NC(=O)c2cc(Oc3ccc(C(=O)N4CCC4)c(F)c3)c3c(c2)OC(C)(CO)C3)nc1` (stereo not shown) [Example 240, 4-[4-(Azetidine-1-carbonyl)-3-fluoro-phenoxy]-2-hydroxymethyl-2-methyl-2,3-dihydro-benzofuran-6-carboxylic acid (5-methyl-pyridin-2-yl)-amide], the activation at 10 µM was determined as 83% and the Emax was 94%. Moreover, the midpoint of the response (EC50 (uM), 5 mM glucose), the EC50, lay at 0.021 µM.

Take `Cn1ccc(NC(=O)c2cc(Oc3ccc(C(=O)N4CCC4)c(F)c3)c3c(c2)OC(C)(CO)C3)n1` (stereo not shown) [Example 241, 4-[4-(Azetidine-1-carbonyl)-3-fluoro-phenoxy]-2-hydroxymethyl-2-methyl-2,3-dihydro-benzofuran-6-carboxylic acid (1-methyl-1H-pyrazol-3-yl)-amide]: under setting [1], the activation at 10 µM was 127%. Further, for the setting “5 mM glucose, read-out: EC50”, the half-maximal effective concentration (EC50) was found to be 0.058 µM. Further, under setting [2], the Emax stood at 135%.

For the compound `COCC1(C)Cc2c(Oc3ccc(C(=O)N4CCC4)c(F)c3)cc(C(=O)Nc3ccn(C)n3)cc2O1` (stereo not shown) [Example 242, 4-[4-(Azetidine-1-carbonyl)-3-fluoro-phenoxy]-2-methoxymethyl-2-methyl-2,3-dihydro-benzofuran-6-carboxylic acid (1-methyl-1H-pyrazol-3-yl)-amide], the activation at 10 µM under setting [1] was determined as 140%. Further, the half-maximal effective concentration (EC50) (5 mM glucose, read-out: EC50) turned out to be 0.063 µM. Also, the Emax under setting [2] worked out at 144%.

On to `Cn1ccc(NC(=O)c2cc(Oc3ccc(S(=O)(=O)C4CC4)cc3)c3c(c2)OC(C)(CO)C3)n1` (stereo not shown) [Example 245, 4-(4-Cyclopropanesulfonyl-phenoxy)-2-hydroxymethyl-2-methyl-2,3-dihydro-benzofuran-6-carboxylic acid (1-methyl-1H-pyrazol-3-yl)-amide], for which the activation at 10 µM under setting [1] amounted to 196%. Also, the 50% effective concentration (EC50) (5 mM glucose, read-out: EC50) was determined as 0.13 µM. The Emax under setting [2] amounted to 236%.

Regarding `Cn1ncc(NC(=O)c2cc(Oc3ccc(S(=O)(=O)C4CC4)cc3)c3c(c2)OC(C)(CO)C3)n1` (stereo not shown) [Example 246, 4-(4-Cyclopropanesulfonyl-phenoxy)-2-hydroxymethyl-2-methyl-2,3-dihydro-benzofuran-6-carboxylic acid (2-methyl-2H-[1,2,3]triazol-4-yl)-amide], the activation at 10 µM under setting [1] came to 222%. Also, the EC50 (5 mM glucose, read-out: EC50) turned out to be 0.16 µM. Also, the Emax under setting [2] was determined as 261%.

Usually EC50 stands for the midpoint of the concentration-response curve.
